Measurements from US10750743B2, “Pyridazinone herbicides” (E.I. DU PONT DE NEMOURS AND COMPANY, priority 2015, dated 2020).

Key:
Format in all cases: in vivo
[1] = tested on: galium (catchweed bedstraw, Galium aparine); assay: Test A postemergence application, visual injury rating; conditions: for pest or weed control at 125 g/ha: 125 g ai/ha
Procedure, shortened: (§1)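 Seeds sown in a loam soil–sand blend received a directed preemergence soil spray of test chemical in a non-phytotoxic solvent mixture with surfactant. Postemergence plants were sprayed at 2 to 10 cm, one- to two-leaf stage. After approximately 10 d in greenhouse, injury was visually rated 0 (no effect) to 100 (complete control) against untreated controls.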

[2] = tested on: foxtail, giant (giant foxtail, Setaria faberii); assay: as above; conditions: for pest or weed control at 125 g/ha: 125 g ai/ha
Procedure, shortened: as §1

corn (Zea mays) = assay: as above; conditions: for plant injury at 125 g/ha: 125 g ai/ha
Procedure, shortened: as §1

[3] = tested on: ragweed (common ragweed, Ambrosia elatior); assay: as above; conditions: for pest or weed control at 125 g/ha: 125 g ai/ha
Procedure, shortened: as §1

kochia (Kochia scoparia) [4] = assay: as above; conditions: for pest or weed control at 125 g/ha: 125 g ai/ha
Procedure, shortened: as §1

[5] = tested on: pigweed (Amaranthus retroflexus); assay: as above; conditions: for pest or weed control at 125 g/ha: 125 g ai/ha
Procedure, shortened: as §1

[6] = tested on: barnyardgrass (Echinochloa crus-galli); assay: as above; conditions: Echinochloa crus-galli, post-emergence, 240 h, 0 to 100 scale, 0 no effect, 100 complete control, read-out: Barnyardgrass plant response rating; for pest or weed control at 125 g/ha: 125 g ai/ha
Procedure, shortened: as §1

[7] = tested on: ryegrass, It. (Italian ryegrass, Lolium multiflorum); assay: as above; conditions: for pest or weed control at 125 g/ha: 125 g ai/ha
Procedure, shortened: as §1

[8] = tested on: foxtail, giant (giant foxtail, Setaria faberii); assay: Test A preemergence, directed soil spray, visual injury rating; conditions: Setaria faberi, pre-emergence, 240 h, 0 is no effect, 100 is complete control, read-out: Plant response rating (0 to 100 scale), Foxtail, Giant; for pest or weed control at 125 g/ha: 125 g ai/ha
Procedure, shortened: as §1

[9] = tested on: ragweed (common ragweed, Ambrosia elatior); assay: as above; conditions: Ambrosia artemisiifolia, pre-emergence, 240 h, 0 is no effect, 100 is complete control, read-out: Plant response rating (0 to 100 scale), Ragweed; for pest or weed control at 125 g/ha: 125 g ai/ha
Procedure, shortened: as §1

kochia (Kochia scoparia) [10] = assay: as above; conditions: Bassia scoparia, pre-emergence, 240 h, 0 is no effect, 100 is complete control, read-out: Plant response rating (0 to 100 scale), Kochia; for pest or weed control at 125 g/ha: 125 g ai/ha
Procedure, shortened: as §1

[11] = tested on: pigweed (Amaranthus retroflexus); assay: as above; conditions: Amaranthus retroflexus, pre-emergence, 240 h, 0 is no effect, 100 is complete control, read-out: Plant response rating (0 to 100 scale), Pigweed; for pest or weed control at 125 g/ha: 125 g ai/ha
Procedure, shortened: as §1

[12] = tested on: barnyardgrass (Echinochloa crus-galli); assay: as above; conditions: Echinochloa crus-galli, pre-emergence, 240 h, 0 is no effect, 100 is complete control, read-out: Plant response rating (0 to 100 scale), Barnyardgrass; for pest or weed control at 125 g/ha: 125 g ai/ha
Procedure, shortened: as §1

[13] = tested on: ryegrass, It. (Italian ryegrass, Lolium multiflorum); assay: as above; conditions: Lolium multiflorum, pre-emergence, 240 h, 0 is no effect, 100 is complete control, read-out: Plant response rating (0 to 100 scale), Ryegrass, It.; for pest or weed control at 125 g/ha: 125 g ai/ha
Procedure, shortened: as §1

[14] = tested on: ducksalad (Heteranthera limosa); assay: Test B flooded paddy test, visual rating; conditions: Heteranthera limosa, 360 h; Flood, 250 g ai/ha, applied to paddy water, rated after 13 to 15 d; read-out: Ducksalad plant response rating (0 to 100 scale, 0 is no effect, 100 is complete control)
Procedure, shortened: (§2)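 Plants at the 2-leaf stage were flooded to 3 cm above soil, and test compounds were applied directly into the paddy water, which was held at that depth throughout. After 13 to 15 d in a greenhouse, injury was rated visually against untreated controls on a 0–100 scale (0 no effect, 100 complete control).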

rice (Oryza sativa) = assay: Test B flooded paddy test, visual rating; conditions: Oryza sativa, 360 h; Flood, 250 g ai/ha, applied to paddy water, rated after 13 to 15 d; read-out: Rice plant response rating (0 to 100 scale, 0 is no effect, 100 is complete control)
Procedure, shortened: as §2

[15] = tested on: sedge, umbrella (small-flower umbrella sedge, Cyperus difformis); assay: Test B flooded paddy test, visual rating; conditions: Cyperus difformis, 360 h; Flood, 250 g ai/ha, applied to paddy water, rated after 13 to 15 d; read-out: Sedge, Umbrella plant response rating (0 to 100 scale, 0 is no effect, 100 is complete control)
Procedure, shortened: as §2

[16] = tested on: barnyardgrass (Echinochloa crus-galli); assay: Test B flooded paddy test, visual rating; conditions: Echinochloa crus-galli, 360 h; Flood, 250 g ai/ha, applied to paddy water, rated after 13 to 15 d; read-out: Barnyardgrass plant response rating (0 to 100 scale, 0 is no effect, 100 is complete control)
Procedure, shortened: as §2

[17] = Galium, post-emergence, 240 h, 0 to 100 scale, 0 no effect, 100 complete control, read-out: Galium plant response rating
[18] = Setaria faberi, post-emergence, 240 h, 0 to 100 scale, 0 no effect, 100 complete control, read-out: Foxtail, Giant plant response rating
[19] = Zea mays, post-emergence, 240 h, 0 to 100 scale, 0 no effect, 100 complete control, read-out: Corn plant response rating
[20] = Ambrosia artemisiifolia, post-emergence, 240 h, 0 to 100 scale, 0 no effect, 100 complete control, read-out: Ragweed plant response rating
[21] = Bassia scoparia, post-emergence, 240 h, 0 to 100 scale, 0 no effect, 100 complete control, read-out: Kochia plant response rating
[22] = Amaranthus retroflexus, post-emergence, 240 h, 0 to 100 scale, 0 no effect, 100 complete control, read-out: Pigweed plant response rating
[23] = Lolium multiflorum, post-emergence, 240 h, 0 to 100 scale, 0 no effect, 100 complete control, read-out: Ryegrass, It. plant response rating
[24] = 31 g ai/ha, 0 is no effect, 100 is complete control

| Compound | pest or weed control at 125 g/ha [1, 17] | pest or weed control at 125 g/ha [2, 18] | plant injury at 125 g/ha (corn (Zea mays); [19]) | pest or weed control at 125 g/ha [3, 20] | pest or weed control at 125 g/ha (kochia (Kochia scoparia) [4]; [21]) | pest or weed control at 125 g/ha [5, 22] | pest or weed control at 125 g/ha [6] | pest or weed control at 125 g/ha [7, 23] | pest or weed control at 125 g/ha [8] | pest or weed control at 125 g/ha [9] | pest or weed control at 125 g/ha (kochia (Kochia scoparia) [10]) | pest or weed control at 125 g/ha [11] | pest or weed control at 125 g/ha [12] | pest or weed control at 125 g/ha [13] | pest or weed control at 250 g/ha [14] | plant injury at 250 g/ha (rice (Oryza sativa)) | pest or weed control at 250 g/ha [15] | pest or weed control at 250 g/ha [16] | further results |
| --- | --- | --- | --- | --- | --- | --- | --- | --- | --- | --- | --- | --- | --- | --- | --- | --- | --- | --- | --- |
| CCOC(=O)Oc1c(C)nn(C)c(=O)c1-c1c(C)ccc2sccc12 [Compound 30, 1,6-dihydro-1,3-dimethyl-5-(5-methylbenzo[b]thien-4-yl)-6-oxo-4-pyridazinyl ethyl carbonate] | 90% | 10% | 20% | 60% | 90% | 90% | 10% | 100% | 0% | 20% | 10% | 90% | 0% | 90% | 0% | 0% | 0% | 0% | pest or weed control at 500 g/ha ([1]; Galium, post-emergence, 240 h, 500 g ai/ha, 0 to 100 scale, 0 no effect, 100 complete control, read-out: Galium plant response rating): 100%; pest or weed control at 500 g/ha ([2]; Setaria faberi, post-emergence, 240 h, 500 g ai/ha, 0 to 100 scale, 0 no effect, 100 complete control, read-out: Foxtail, Giant plant response rating): 70%; plant injury at 500 g/ha (corn (Zea mays); Zea mays, post-emergence, 240 h, 500 g ai/ha, 0 to 100 scale, 0 no effect, 100 complete control, read-out: Corn plant response rating): 40%; pest or weed control at 500 g/ha ([3]; Ambrosia artemisiifolia, post-emergence, 240 h, 500 g ai/ha, 0 to 100 scale, 0 no effect, 100 complete control, read-out: Ragweed plant response rating): 90%; pest or weed control at 500 g/ha (kochia (Kochia scoparia) [4]; Bassia scoparia, post-emergence, 240 h, 500 g ai/ha, 0 to 100 scale, 0 no effect, 100 complete control, read-out: Kochia plant response rating): 100%; pest or weed control at 500 g/ha ([5]; Amaranthus retroflexus, post-emergence, 240 h, 500 g ai/ha, 0 to 100 scale, 0 no effect, 100 complete control, read-out: Pigweed plant response rating): 90%; pest or weed control at 500 g/ha ([6]; 500 g ai/ha): 80%; pest or weed control at 500 g/ha ([7]; Lolium multiflorum, post-emergence, 240 h, 500 g ai/ha, 0 to 100 scale, 0 no effect, 100 complete control, read-out: Ryegrass, It. plant response rating): 100%; pest or weed control at 500 g/ha ([8]; 500 g ai/ha): 80%; pest or weed control at 500 g/ha ([9]; 500 g ai/ha): 90%; pest or weed control at 500 g/ha (kochia (Kochia scoparia) [10]; 500 g ai/ha): 80%; pest or weed control at 500 g/ha ([11]; 500 g ai/ha): 100%; pest or weed control at 500 g/ha ([12]; 500 g ai/ha): 90%; pest or weed control at 500 g/ha ([13]; 500 g ai/ha): 100% |
| Cn1nc(Cl)c(O)c(-c2nccc3ccccc23)c1=O [Compound 67, 6-chloro-5-hydroxy-4-(1-isoquinolinyl)-2-methyl-3(2H)-pyridazinone] | 40% | 0% | 0% | 10% | 40% | 50% | 0% | 60% | 0% | 0% | 0% | 20% | 0% | 50% | 0% | 0% | 75% | 0% | Plant response rating (0 to 100 scale), Galium [1, 24]: 20; Plant response rating (0 to 100 scale), Foxtail, Giant [2, 24]: 0; Plant response rating (0 to 100 scale), Corn (corn (Zea mays); [24]): 0; Plant response rating (0 to 100 scale), Ragweed [3, 24]: 0; Plant response rating (0 to 100 scale), Kochia (kochia (Kochia scoparia) [4]; [24]): 0; Plant response rating (0 to 100 scale), Pigweed [5, 24]: 40; pest or weed control at 31 g/ha ([6]; 31 g ai/ha): 0%; Plant response rating (0 to 100 scale), Ryegrass, It. [7, 24]: 20; pest or weed control at 31 g/ha ([8]; 31 g ai/ha): 0%; pest or weed control at 31 g/ha ([9]; 31 g ai/ha): 0%; pest or weed control at 31 g/ha (kochia (Kochia scoparia) [10]; 31 g ai/ha): 0%; pest or weed control at 31 g/ha ([11]; 31 g ai/ha): 10%; pest or weed control at 31 g/ha ([12]; 31 g ai/ha): 0%; pest or weed control at 31 g/ha ([13]; 31 g ai/ha): 10% |
